Consider 21 compounds from US8586505B2 (SDS Biotech K. K., priority 2009, dated 2013).

Holding throughout (assay type): in vivo
Assay [1] deals with Phytophthora infestans. Put plainly: whole plant or invertebrate. As to conditions: in Solanum lycopersicum, 96 h, read-out: Determination of control effect (preventive value).
For assay [2], the system named is Pseudoperonospora cubensis. Briefly: Test of examining control effect on Pseudoperonospora cubensis (potted cucumber plants). As to conditions: 96 h, 10% wettable powder adjusted to 125 ppm, 15 ml/pot sprayed on potted cucumber plants one day before spray inoculation, assessed after 1 day wet chamber and 3 days greenhouse, read-out: Determination of control effect (preventive value) on Pseudoperonospora cubensis. Summed up: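 Cucumber plants (Sagamihanjiro, 2.5-leaf stage) sprayed with 125 ppm compound solution from 10% wettable powder, 15 ml/pot. One day later, spray-inoculated with P. cubensis conidia (1.0×10^4 cells/ml), kept 1 day at 21° C wet, then 3 days in greenhouse. Preventive value derived from lesion area relative to untreated plants.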

The test system of assay [3] is Sphaerotheca fuliginea. Put plainly: Test of examining control effect on Sphaerotheca fuliginea (potted cucumber plants). As to conditions: Podosphaera fuliginea, 336 h; 10% wettable powder adjusted to 125 ppm, 15 ml/pot sprayed on potted cucumber plants one day before spray inoculation; assessed after 14 days in greenhouse; read-out: Determination of control effect (preventive value) on Sphaerotheca fuliginea. Summed up:
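Cucumber plants (Sagamihanjiro, 2nd leaf stage) sprayed with 125 ppm compound (from 10% wettable powder), inoculated one day later with S. fuliginea conidia (1.0×10^5 cells/ml); lesion area scored after 14 days in greenhouse. Preventive value vs untreated; ≥60% high, <60% low control.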

On to `Fc1ccc(C#CCCNc2ncnc3sccc23)cc1` [compound 13], for which the pest or weed control at 125 ppm in assay [1] is 0 to 60%. Also, the pest or weed control at 125 µg/mL in assay [2] and in assay [3] was 60 to 100% each time.
With `COCOCc1ccccc1C#CCCNc1ncnc2ccccc12` [compound 148], the pest or weed control at 125 ppm in assay [1] was in the range of 60 to 100%. In addition, the pest or weed control at 125 µg/mL in assay [2] and in assay [3] was 60 to 100% each time.
As to `COCc1ccccc1C#CCCNc1ncnc2ccc(OCC#Cc3ccccc3)cc12` [compound 339], the pest or weed control at 125 ppm in assay [1] is 0 to 60%. Also, the pest or weed control at 125 µg/mL in assay [2] was 60 to 100%; in assay [3], 0 to 60%.
Take `CCOC(OCC)c1ccccc1C#CCCNc1ncnc2ccccc12` [compound 150]: the pest or weed control at 125 ppm in assay [1] was in the range of 0 to 60%. Moreover, the pest or weed control at 125 µg/mL in assay [2] and in assay [3] was 0 to 60% throughout.
Take `N#Cc1cc(C(F)(F)F)ccc1C#CCCNc1ncnc2ccccc12` [compound 187]: the pest or weed control at 125 ppm in assay [1] fell in the range of 0 to 60%. In addition, the pest or weed control at 125 µg/mL in assay [2] was 60 to 100%; in assay [3], 0 to 60%.
Consider `COCc1ccccc1C#CCCNc1ncnc2c(C)cccc12` [compound 325], for which the pest or weed control at 125 ppm in assay [1] lay within 60 to 100%. The pest or weed control at 125 µg/mL in assay [2] and in assay [3] was 60 to 100% each time.
Regarding `COCc1ccccc1C#CCCNc1ncnc2ccc(-c3cccc(F)c3)cc12` [compound 335], in assay [1], the pest or weed control at 125 ppm was 0 to 60%. Further, the pest or weed control at 125 µg/mL in assay [2] lay in the range of 60 to 100%; in assay [3] it was 0 to 60%.
For the compound `CC(CC#Cc1ccc(Cl)cc1)Nc1ncnc2ccccc12` (stereo not drawn) [compound 273], the pest or weed control at 125 ppm in assay [1] lay within 60 to 100%. For the same compound, the pest or weed control at 125 µg/mL in assay [2] and in assay [3] was 60 to 100% in each case.
Consider `FC(F)(F)c1ccccc1C#CCCNc1ncnc2cc3ccccc3cc12` [compound 342], for which the pest or weed control at 125 ppm in assay [1] was 0 to 60%. Besides, the pest or weed control at 125 µg/mL in assay [2] lay within 60 to 100%; in assay [3], 0 to 60%.
In the case of `Fc1ccccc1Oc1nc(C#CCCNc2ncnc3ccccc23)cs1` [compound 224], the pest or weed control at 125 ppm in assay [1] lay within 60 to 100%. Moreover, the pest or weed control at 125 µg/mL in assay [2] and in assay [3] was 60 to 100% throughout.
Consider `C=CC(CC#Cc1ccc(F)cc1)Nc1ncnc2ccccc12` (stereo not drawn) [compound 297], for which, in assay [1], the pest or weed control at 125 ppm was 0 to 60%. In addition, the pest or weed control at 125 µg/mL in assay [2] and in assay [3] was 60 to 100% throughout.
Regarding `C(#CC1CCCCC1)CCNc1ncnc2ccccc12` [compound 91], the pest or weed control at 125 ppm in assay [1] lay in the range of 60 to 100%. Moreover, the pest or weed control at 125 µg/mL in assay [2] and in assay [3] was 60 to 100% throughout.
As to `COCc1ccccc1C#CCCNc1ncnc2ncccc12` [compound 380], the pest or weed control at 125 ppm in assay [1] is 60 to 100%. The pest or weed control at 125 µg/mL in assay [2] and in assay [3] was 60 to 100% throughout.
As for `C(#CCc1ccccc1)CCNc1ncnc2sccc12` [compound 9], the pest or weed control at 125 ppm in assay [1] is 0 to 60%. For the same compound, the pest or weed control at 125 µg/mL in assay [2] and in assay [3] was 60 to 100% in each case.
Regarding `CC(CC#Cc1ccc(C(F)(F)F)cc1Cl)Nc1ncnc2ccccc12` (stereo not drawn) [compound 282], the pest or weed control at 125 ppm in assay [1] was 0 to 60%. The pest or weed control at 125 µg/mL in assay [2] and in assay [3] was 60 to 100% each time.
On to `N#Cc1ccccc1Oc1nc(C#CCCNc2ncnc3ccccc23)cs1` [compound 221], for which the pest or weed control at 125 ppm in assay [1] lay in the range of 0 to 60%. Moreover, the pest or weed control at 125 µg/mL in assay [2] and in assay [3] was 60 to 100% each time.
In the case of `COCc1ccccc1C#CCCNc1ncnc2c(OC)cccc12` [compound 328], the pest or weed control at 125 ppm in assay [1] was in the range of 0 to 60%. Further, the pest or weed control at 125 µg/mL in assay [2] and in assay [3] was 60 to 100% in each case.
In the case of `N#Cc1cc(F)ccc1C#CCCNc1ncnc2ccccc12` [compound 170], the pest or weed control at 125 ppm in assay [1] was 60 to 100%. Moreover, the pest or weed control at 125 µg/mL in assay [2] and in assay [3] was 60 to 100% in each case.
For the compound `COc1ccccc1C#CCC(C)Nc1ncnc2ccccc12` (stereo not drawn) [compound 276], the pest or weed control at 125 ppm in assay [1] was in the range of 60 to 100%. The pest or weed control at 125 µg/mL in assay [2] was 60 to 100%; in assay [3], 0 to 60%.
On to `CC(CC#Cc1ccc(Cl)c(C(F)(F)F)c1)Nc1ncnc2sccc12` (stereo not drawn) [compound 254], for which the pest or weed control at 125 ppm in assay [1] lay within 0 to 60%. For the same compound, the values for the pest or weed control at 125 µg/mL in assay [2] and in assay [3] were 60 to 100% and 0 to 60%, respectively.
For the compound `C(#Cc1csc(N2CCCCC2)n1)CCNc1ncnc2ccccc12` [compound 228], the pest or weed control at 125 ppm in assay [1] fell in the range of 0 to 60%. The pest or weed control at 125 µg/mL was 60 to 100% in assay [2] and 0 to 60% in assay [3].
